Experimental data: ChEMBL document CHEMBL6134909 (Eur J Med Chem, 2025)

Key:
Influenza A virus = test: Anti-viral activity against Influenza A virus H7N1 pseudotype infected in human A549 cells assessed as inhibition of viral entry incubated for 48 hrs by Neolite Reporter Gene Assay; assay type: functional, organism-based; details: H7N1, A549, 48 h
[1] = Cytotoxicity against human A549 cells incubated for 48 hrs by CellTiter-Glo Luminescent Cell Viability Assay; assay type: toxicity, cell-based
[2] = Metabolic stability in human liver microsomes assessed as compound remaining at 2 to 10 uM measured after 60 mins in presence of NADPH by LC-MS/MS analysis; assay type: ADME, Microsome; details: dose 2-10 µM, read-out: Stability
[3] = Metabolic stability in BALB/c mouse liver microsomes assessed as compound remaining at 2 to 10 uM measured after 60 mins in presence of NADPH by LC-MS/MS analysis; assay type: ADME, Microsome; details: dose 2-10 µM, read-out: Stability
[4] = Metabolic stability in human liver microsomes assessed as compound remaining at 2 to 10 uM measured after 60 mins in absence of NADPH by LC-MS/MS analysis; assay type: ADME, Microsome; details: dose 2-10 µM, read-out: Stability
[5] = Metabolic stability in BALB/c mouse liver microsomes assessed as compound remaining at 2 to 10 uM measured after 60 mins in absence of NADPH by LC-MS/MS analysis; assay type: ADME, Microsome; details: dose 2-10 µM, read-out: Stability
[6] = Metabolic stability in human plasma at 2 uM measured after 60 mins by LC-MS/MS analysis; assay type: ADME, cell-free; details: 1 h
[7] = Metabolic stability in mouse plasma at 2 uM measured after 60 mins by LC-MS/MS analysis; assay type: ADME, cell-free; details: 1 h

Compound	EC50 (Influenza A virus)	CC50 at 48 h [1]	remaining at 1 h, up to 10 µM [2]	remaining at 1 h, up to 10 µM [3]	remaining at 1 h, up to 10 µM [4]	remaining at 1 h, up to 10 µM [5]	Stability [6]	Stability [7]
Cc1cc(C)n2c(NC3CCCCC3)c(-c3ccccc3)nc2n1	2550 nM	59 µM						
COc1ccc(-c2nc3sccn3c2NC2CCCCC2)cc1	3020 nM	63.1 µM						
Clc1cnc2nc(-c3ccccc3)c(NC3CCCCC3)n2c1	13000 nM	> 100 µM						
Fc1ccc(-c2nc3ncccn3c2NC2CCCCC2)c(F)c1	90 nM	72 µM	33.4%	22.8%	104%	108%	Stable	Stable
Oc1ccc(-c2nc3ncc(Cl)cn3c2NC2CCCCCC2)cc1	1090 nM	50 µM						
CN1CCOc2cc(-c3nc4ncc(Cl)cn4c3NC3CCCCC3)ccc21	2050 nM	> 100 µM						
Cc1cc(C)n2c(NC3CCCCC3)c(-c3cccc4c3OC(F)(F)O4)nc2n1	6270 nM	> 25 µM						
Cc1cc(C)n2c(NC3CCCCC3)c(-c3ccc(F)c(N4CCOCC4)c3)nc2n1	4570 nM	> 25 µM						
Cc1cc(C)n2c(NC3CCCCC3)c(-c3ccnc(Cl)c3)nc2n1	270 nM	> 25 µM	0.5%	6.8%	114%	105%	Stable	Stable
Fc1ccc(-c2nc3ncc(Cl)cn3c2NC2CCCCC2)cc1F	260 nM	> 100 µM					Stable	Stable
Fc1ccc(-c2nc3ncc(Cl)cn3c2NC2CCCCCC2)cc1F	120 nM	> 100 µM	2.1%	6.3%	97%	101%	Stable	Stable
CC(C)Oc1ccc(-c2nc3ncccn3c2NC2CCCCC2)cc1	1450 nM	> 100 µM						
Fc1cc(N2CCOCC2)ccc1-c1nc2ncc(Cl)cn2c1NC1CCCCC1	2490 nM	54 µM						
Cc1ccc(Cl)c(-c2nc3ncccn3c2NC2CCCCC2)c1F	1260 nM	27 µM						
Cc1cc(C)n2c(NC3CCCCC3)c(-c3ccc(F)c(F)c3)nc2n1	1300 nM	> 25 µM						
CC12CC3CC(C)(C1)CC(Nc1c(-c4ccc(F)c(F)c4)nc4ncccn14)(C3)C2	9180 nM	15.5 µM						
COCCOCOc1ccc(-c2nc3ncc(Cl)cn3c2NC2CCCCC2)cc1	860 nM	> 100 µM						
CCN(c1c(-c2ccc(F)c(F)c2)nc2ncccn12)C1CCCCC1	12800 nM	> 100 µM	1%	0%	110%	103%		
c1ccc(-c2nc3ncccn3c2NC2CCCC2)cc1	350 nM	> 100 µM						
Cc1cc(C)n2c(NC3CCCCC3)c(-c3cc(Br)ncc3F)nc2n1	3280 nM	> 25 µM						
Fc1cc(-c2nc3ncc(Cl)cn3c2NC2CCCCC2)ccc1N1CCCC1	12500 nM	> 100 µM						
COCOc1ccc(-c2nc3ncc(Cl)cn3c2NC2CCCCC2)c(F)c1	3040 nM	50 µM	2.6%	14.2%	106%	102%		
CN1CCN(c2ccc(-c3nc4ncc(Cl)cn4c3NC3CCCCC3)c(F)c2)CC1	1260 nM	46 µM						
COCOc1cccc(-c2nc3ncc(Cl)cn3c2NC2CCCCC2)c1F	3040 nM	51 µM						
